For data set [1] the following is noted: rat, in vivo.
Data set [2] has as its system adult hippocampal NPCs in vivo. Put plainly: In vivo neurogenesis assay (BrdU labeling, hippocampus). Details: species or system rat. The settings on record: for neuronal fraction of newborn cells: 1 mg/kg.
Data set [3] has as its system adult hippocampal NPCs. Put plainly: Neurogenesis from adult NPCs on ethanol-fixed hippocampal substrate (MAP2ab). It is filed as cell-based, rat. The conditions noted are these: for neurogenesis with the agonist as stimulus: FPL 64176 5 μM, NMDA 50 μM. The protocol: Hippocampal cell culture. […] Tissue was treated with papain (20 U/ml) in 10 ml of this solution with additional (in mM) 1.7 cysteine, 1 CaCl2, and 0.5 EDTA for 45 min at 37° C. The digestion was stopped by replacing the solution with 10 ml of MEM/Earle's salts without L-glutamine along with 20 mM glucose, Serum Extender (1:1000), and 10% heat-inactivated fetal bovine serum containing 25 mg of bovine serum albumin (BSA) and 25 mg of trypsin inhibitor. The tissue was triturated in a small volume of this solution with a fire-polished Pasteur pipette, and ˜100,000 cells in 1 mL plated per coverslip in 24-well plates. Glass coverslips (pre-washed overnight in HCl followed by several 100% EtOH washes and flame sterilization) were coated overnight at 37° C. with 1:50 Matrigel (Collaborative Biomedical Products, Bedford, Mass.). Cells were plated in culture medium, Neurobasal containing 2× B-27 (Life Technologies) and 2 mM Glutamax-I (Life Technologies). […] For lightly fixed tissue experiments, stem/progenitor cells were plated after hippocampal cultures at 7 DIV were exposed to 70% EtOH at −20° C. for 30 min, then washed 2× in sterile PBS.
(§1) Stem cell coculture. […] Mitotic inhibitor FUDR (5-fluoro-2′-deoxyuridine) was included with uridine at 0.3 mM unless otherwise indicated at the start of the sixth day post-plating, after cell cycle exit and initiation of differentiation, to allow for long term culture (in some experiments 50 μM D-AP5 (RBI) was also included as noted in the text). Thereafter cultures were supplemented with NT3 to 20 ng/mL every 2-3 days until cocultures were 9-16 days old (control and experimental conditions were always conducted in parallel and therefore were age-matched at all times), at which point neurogenesis assays were performed.
(§2) Excitation of NPCs in coculture. […] Divalent cation concentration was maintained constant in external calcium variation experiments by replacement with equimolar magnesium. […] Persistent stimuli were used except where noted, to mimic areas of local persistent high activity and to avoid rebound or washoff effects. […] An advantage of using depolarization for these brief stimuli is that the logarithmic dependence of depolarization on extracellular potassium described by the Nernst equation obviates the need for extensive washing of the stimulated sample prior to reapplication of the control medium.
(§3) Immunocytochemistry and transfection. Cells were fixed in 4% formaldehyde (EM Sciences)/PBS for 20-30 min, washed 3×5 min in PBS/0.1 M glycine, permeabilized for 5 min in 0.1% Triton/PBS/3% BSA, washed 3×5 min in PBS/glycine, blocked for 1-2 hr in PBS/3% BSA, and incubated overnight at 4° C. in PBS/3%BSA/primary antibodies. Cells were then washed 3×5 min in PBS, incubated for 1 hr at 37° C. in PBS/3%BSA/secondary antibodies, washed 3×10 min in PBS, and mounted in Fluoromount (Electron Microscopy Sciences). TUNEL staining was performed with Apoptag Red (Serologicals). […] Cotransfections were carried out with Lipofectamine 2000 according to the manufacturer's instructions immediately after NPC plating. […] As with all experiments, stimulation or control conditions were initiated 24 hr after transfection on Day 1.
Confocal imaging and analysis. Images were acquired on a Zeiss LSM confocal microscope. Random fields containing GFP+ cells were selected for acquisition under GFP excitation without knowledge of experimental condition, and subsequently scanned using laser lines appropriate to excite the fluorophores corresponding to MAP2ab and other antigens. Data were analyzed using Metamorph software from Universal Imaging.

Data set [4] deals with adult rat hippocampal NPCs. Put plainly: Neurogenesis from adult NPCs in living hippocampal coculture (MAP2ab). In kind it is cell-based. The protocol:
as §1, §2, §3
Confocal imaging and analysis. Images were acquired on a Zeiss LSM confocal microscope. Random fields containing GFP+ cells were selected for acquisition under GFP excitation without knowledge of experimental condition, and subsequently scanned using laser lines appropriate to excite the fluorophores corresponding to MAP2ab and other antigens. Data were analyzed using Metamorph software from Universal Imaging. […] Mean data from 12 independent experiments conducted with potassium depolarization were used as the reference point for effects of pharmacological interventions in coculture. For evaluation of proliferation and survival effects, daily cell counts as well as TUNEL and BrdU staining were performed in parallel stimulated and unstimulated cultures. BrdU was applied to cultures at 5 μM for 2 hr, and BrdU staining was conducted with a 20-30 min postfixation and subsequent incubation at 37° C. for 20-30 min in 1 N HCl. For Ca^2+ imaging, x-Rhod-1 AM (Molecular Probes) was loaded at 10 μM for 30 min at 37° C. into cells on the fixed coculture substrate 1-2 days after initiation of mitogen taper.

Data set [5] is described as follows: Tolerability of treatments in the in vivo neurogenesis assay. The settings on record: 4 mg/kg.
In data set [6] the test system is voltage-activated Na+ current. In kind it is cell-based, rat.
Data set [7] has as its system adult rat hippocampal NPCs. The data set can be described thus: Miniature EPSC recording of NPC progeny in coculture. It is filed as cell-based. The settings on record: living coculture.
The test system of data set [8] is proliferating adult-derived NPCs. In kind it is cell-based, rat. The conditions noted are these: fixed substrate; x-Rhod-1.
Where [9] appears, read: rats, 1 mg/kg for 1 week, 30 days after treatment.
[10] abbreviates: anti-mitotic agent added at day 1.
Setting [11] is: adult rats, 4 mg/kg daily for 1 week, not statistically significant.

The structures appear in SMILES notation. “Also recorded” adds a separate entry of the source.

Regarding `COC(=O)C1=C(C)NC(C)=C([N+](=O)[O-])C1c1ccccc1C(F)(F)F` (centres unmarked) [BayK 8644], the tolerability result in data set [1] is recorded as “well-tolerated”. Besides, in data set [2] (setting [9]), the “increase in total newborn cell number versus control” value is recorded as 2.5 fold and the “neuronal fraction of newborn cells” value is given as 120±11 % of control. Also, the “neuronal fraction of newborn cells” value in data set [2] (rats, 1 mg/kg for 1 week, 30 days after treatment, listed as BayK) was 120%±11%. For the same molecule, the “total BrdU+ cells per hippocampus (subgranular zone and hilus)” value in data set [2] (rats, 1 mg/kg for 1 week, 30 days after treatment, unbiased stereology) was determined as 19633±2677.

Regarding `NC(CCCP(=O)(O)O)C(=O)O` [D-AP5], the “neurogenesis enhancement by excitation” value in data set [3] (delayed application of D-AP5 on day 5, n=7) was 2.76±0.95 fold. For the same molecule, the excitation-induced neurogenesis entry was “inhibited” in data set [3] (fixed substrate, K+ depolarization, nifedipine 10 μM, D-AP5 50 μM) and “blocked” in data set [4] (depolarization or glutamate, D-AP5 50 μM). In data set [3] (fixed substrate, no stimulation, D-AP5 50 μM), the basal neurogenesis entry is given as “inhibited”. In addition, the “neurogenesis in the basal (Na) condition” value in data set [4] is “significant inhibition”.

Consider `COC(=O)c1c(C)[nH]c(C)c1C(=O)c1ccccc1Cc1ccccc1` [FPL 64176], for which the overt dystonias entry in data set [5] is listed as “did not lead to overt dystonias”. Further, in data set [5] (7th experimental day), the “treated animals that died shortly before sacrifice” value is “two”. The “neurogenesis with the agonist as stimulus” value in data set [3] (fixed substrate) is “enhancement of neurogenesis”. For the same molecule, the “neurogenesis after three 5 min pulses” value in data set [3] (fixed substrate, pulses on days 1, 3 and 5) is reported as “enhanced neurogenesis to a similar extent as continuous excitatory stimulation; also recorded: effective”. Further, the “fraction of newborn (BrdU+) cells assuming the neuronal phenotype (Dcx+)” value in data set [2] (adult rats, 4 mg/kg daily for 1 week) was “relative increase”.

For `O=c1[nH]c(=O)n([C@H]2C[C@H](O)[C@@H](CO)O2)cc1F` [FUDR, 5-fluoro-2′-deoxyuridine], in data set [3] (setting [10]), the cells killed entry is recorded as “more than 95%” and the “neurogenic effects of excitation” value is “abolished”.

In the case of `CN[C@H](CC(=O)O)C(=O)O` [NMDA], the “neurogenesis with the agonist as stimulus” value in data set [3] (fixed substrate) is on record as “significant increase”.

With `NC1=N[C@H](O)[C@H]2[C@H]3O[C@]4(O)O[C@@H]([C@@H](O)[C@@]2(N1)[C@@H]4O)[C@]3(O)CO` [TTX, Tetrodotoxin], the “inward Na+ current evoked with a step from -70 mV to -10 mV” value in data set [6] is reported as “reversibly blocked”.

Take `CN1C(=O)CN=C(c2ccccc2)c2cc(Cl)ccc21` [diazepam]: in data set [2] (rat, in vivo, 4 mg/kg), the “GFAP/BrdU double-positive cells (astroglial phenotype)” value is 58.5%, the “NG2/BrdU double-positive cells (oligodendroglial phenotype)” value was found to be 4.7% and the “fraction of newborn (BrdU+) cells assuming the neuronal phenotype (Dcx+)” value was “significant reduction”.

As for `N[C@@H](CCC(=O)O)C(=O)O` [glutamate], in data set [4], the “mean MAP2ab intensity in the resulting neuronal progeny” value is recorded as “no effect”. Besides, the “fraction of NPCs becoming neurons (MAP2ab+)” value is on record as “increase; also recorded: increased neurogenesis” in data set [4] (50 μM glutamate from day 1) and “promoted neurogenesis” in data set [4] (50 μM glutamate from day 1, listed as Glu). For the same molecule, the “fraction of adult NPCs that received functional excitatory synaptic connections (mEPSCs)” value in data set [7] is recorded as “increase”. Besides, the “cells showing an increase in intracellular Ca2+” value in data set [8] is 44 of 73.

Regarding `COC(=O)C1=C(C)NC(C)=C(C(=O)OC)C1c1ccccc1[N+](=O)[O-]` [nifedipine], in data set [2] (setting [11]), the “GFAP/BrdU double-positive cells (astroglial phenotype)” value was 58.8% and the “NG2/BrdU double-positive cells (oligodendroglial phenotype)” value was determined as 3.5%.

These data come from US7670838B2, “Coupling of excitation and neurogenesis in neural stem/progenitor cells” (priority 2004, dated 2010).
